Assay results from US12161630B2, “Methods to control infection using new generation small molecule growth inhibitors” (priority 2017, dated 2024).

Columns and labels:
M. gallisepticum = assay: Activity on avian pathogens at 200 μM, M. gallisepticum; assay type: cell-based, Mycoplasma gallisepticum
Protocol: FIGS. 1(A-E). Selection of potent Salmonella growth inhibitors. FIG. 1A: High-throughput screening of 4182 SMs against S. typhimurium WT at 200 μM. Negative value: growth inhibition; Positive value: growth stimulation compared to S. typhimurium growth not treated. The black line represents growth inhibition caused by 2% DMSO. FIG. 1B: Activity of 19 S. typhimurium growth inhibitors against additional Salmonella serotypes. Light grey cells: total growth inhibition; dark grey cells: bacterial growth observed; black cells: not determined. FIG. 1C: Dose-response assays of the selected 19 SMs against S. typhimurium WT. […] The black line represents a cut off of nine serotypes killed per SM. FIG. 1E: Activity spectra of the selected four SMs at 200 μM each on several avian-pathogens (Campylobacter jejuni, Escherichia coli APEC, and Mycoplasma gallisepticum) and beneficial gut bacteria (remaining species). E. coli APEC refers to Avian Pathogenic E. coli and includes E. coli O1, O2, O8, O15, O18, O35, O78, O109, and O115. Light grey cells: cidal effect; dark grey cells: bacterial growth observed. Left side: phylogenetic tree based on NCBI taxonomic ID built with PhyloT software.
The selected four SMs were tested on twelve beneficial-commensal gut bacteria at 200 μM (FIG. 1E). […] These four SMs were also growth inhibitors of other avian pathogens at 200 μM (unpublished data, FIG. 1E). […] The antimicrobial activity seemed not to be influenced by the taxonomic classification, however the SM5 bacterial target may be less present in prokaryotes than the drug target of the other three SMs.

[1] = test system: Galleria mellonella larvae; assay: Toxicity on Galleria mellonella larva; assay type: in vivo; conditions: over 72 HPI, single treatment with 12.5 μg per larva
Protocol: Toxicity of the selected four SMs on Galleria mellonella larva: Galleria mellonella larvae (fifth instar stage) were incubated for 12 hrs at 37° C. in the dark. After incubation, only larvae with a white phenotype and a body weight ranging between 225 mg to 275 mg were selected for the injection. Fifteen larvae per group were inoculated in one of the last pro-leg with 12.5 μg of SMs (8.5 μl) using a PB600-1 repeating dispenser (Hamilton, Reno, NV) attached to 300 μl insulin syringe, 31-gauge, 8 mm needle length (ReliOn®, Bentonville, AR). SMs were diluted into a buffer mix (30% DMSO plus 10 mM MgSO4). Larvae were placed inside a plastic petri dish and incubated for 3 days in the dark at 37° C. Every 12 hrs of interval, the larva survival was monitored. Non-treated larvae, larvae treated with the buffer mix, and larvae treated with 12.5 μg of chloramphenicol were used as control. At least two independent experiments were conducted.

chicken cecal microbiota = assay: Cecal microbiota 16S rRNA sequencing of SM-treated infected chickens; assay type: in vivo, broiler chickens; conditions: compared to DMSO group (P<0.01)
Protocol: DNA extraction and sequencing: Microbiota diversity and abundance were investigated using the second cecum directly stored in −80° C. Genomic DNA was extracted using the PureLink Microbiome DNA Purification Kit (Life Technologies, Invitrogen Corp.), combined with RNAse treatment (10 units/hour). About 0.15 g to 0.20 g of cecum content was processed according to manufacturer's instructions. After quality control with electrophoresis and nanodrop, extracted DNA samples were subjected for 16S rRNA V4-V5 variable region sequencing. As a first step of targeted sequencing, amplicon libraries were prepared by using Phusion® High-Fidelity PCR Kit (New England Biolabs Inc, Ipswich, MA) in a 96-well plate. 25 μL of PCR reactions were prepared using 5 μl (5×) of PCR buffer, 4 μl (5 ng/μl) of DNA sample, and 2.5 μl (2 μM) primer, 0.5 μl (10 mM) dNTPs, 0.2 μl of enzyme, and nuclease free water to final volume. The barcoded primers targeted the V4-V5 variable region. […] Sample concentrations were measured, and equal concentration of all samples were pooled into one flow cell and sequenced using Illumina MiSeq 300-base, paired-end kit at the Molecular and Cellular Imaging Center (Ohio Agricultural Research & Development Center, Wooster, OH).
Bioinformatics analyses: After sequencing, a quality control of the raw reads was performed using FastQC (Babraham Bioinformatics, Cambridge, USA). […] Details concerning the parameters used are described in mcbl.readthedocs.io/en/latest/mcbl-tutorials-AD-clean.html. […] Then samples were processed using Quantitative Insights Into Microbial Ecology (QIIME) software version 1.9 (16). Operational Taxonomy Units (OTUs) were determined by clustering reads against Greengenes 16S reference dataset (2013-08 release) at a 97% identity using open picking reference OTU (pick_open_reference_otus.py) method using default parameters, except setting minimum OTU size to 10. […]

CCCCCCCCCCCCCCCC[n+]1ccn(CC#N)c1.[Cl-] [SM3, 1-(cyanomethyl)-3-hexadecyl-1H-imidazol-3-ium chloride] was tested, and the “effect against M. gallisepticum” value (M. gallisepticum) was “killed” and the “lethal effect in G. mellonella larvae” value [1] was “killed only a few larvae”.
In the case of CC1CCC(C(C)C)C(OC(=O)Cn2c[n+](CC(=O)OC3CC(C)CCC3C(C)C)c3ccccc32)C1.[Cl-] (stereo not shown) [SM1, 1,3-bis{2-[(2-isopropyl-5-methylcyclohexyl)oxy]-2-oxoethyl}-1H-3,1-benzimidazol-3-ium chloride], the “lethal effect in G. mellonella larvae” value [1] was “chronic death of the larvae over time” and the “abundance of Salmonella OTUs in ceca” value (chicken cecal microbiota) was “reduction”.
With CCCCCCCCCCCCCCCCn1c[n+](C)c2ccccc21.[Br-] [SM4, 1-hexadecyl-3-methyl-1H-3,1-benzimidazol-3-ium bromide] the “effect against M. gallisepticum” value (M. gallisepticum) was “killed”, the “lethal effect in G. mellonella larvae” value [1] was “no lethal effect” and the “abundance of Salmonella OTUs in ceca” value (chicken cecal microbiota) was “reduced abundance”.
CCOc1cc(/C=N/N=C(N)N)ccc1OCc1ccc(Cl)cc1 [SM5, N″-{4-[(4-chlorobenzyl)oxy]-3-ethoxybenzylidene}carbonohydrazonic diamide] was tested, and the “effect against M. gallisepticum” value (M. gallisepticum) was “killed”, the “lethal effect in G. mellonella larvae” value [1] was “killed only a few larvae” and the “abundance of Salmonella OTUs in ceca” value (chicken cecal microbiota) was “reduced abundance”.
